{"source": "patent US8921414B2", "about": "“Spiroketals” (EcoBiotics Ltd, priority 2005, dated 2014)", "key": {"[1]": {"system": "Bacillus subtilis", "assay": "ProTOX (Bs) antibacterial bioassay", "type": "cell-based", "details": "weight of chemical in last well with activity; real value may be lower", "source_text": "ProTOX, (alternatively referred to herein as Bs) is an antibacterial bioassay, broadly applicable to most aerobic and anaerobic bacteria. The bioassay features a solid phase agar base into which the test compound has been incorporated together with a chromogen. As the bacteria multiply in the well, the chromogen is metabolised from blue in a two-step process to a colourless compound. Compounds with potent bactericidal activity inhibit bacterial metabolism of the chromogen while bacteriostatic compounds induce limited metabolism as indicated by an intermediate pink colour. ProTOX is broadly applicable to a range of gram-positive and gram-negative bacteria under aerobic and microaerophilic conditions. ProTOX assays were carried out using Bacillus subtilis. Briefly, in ProTOX, the bacteria (24 hour broth) were applied to the surface of an agar matrix containing the test sample and allowed to grow for 48 h. The assay was monitored at 24 and 48 hours and the active wells noted. Known antibiotics yield consistent colour transitions which are concentration and time dependent. These patterns provided an important guide to the early recognition of interesting characteristics."}, "[2]": {"system": "NS1 murine myeloma cell line", "assay": "CyTOX (Cy) cytotoxicity bioassay", "type": "cell-based", "details": "weight of chemical in last well with activity; real value may be lower", "source_text": "CyTOX (alternatively referred to herein as Cy) is a microtitre plate bioassay use to identify potential antitumor actives. CyTOX is a chromogenic bioassay with broad application to a wide range of tumor and non-tumor cell lines. […] CyTOX features a liquid media into which the test compound has been incorporated together with a novel chromogen. As the cells grow and divide the chromogen is metabolised from purple in a single step process to a colourless metabolite. CyTOX is routinely undertaken using NS1 murine myeloma cell line as a guide to mammalian cell toxicity. Briefly, in CyTOX the cells were applied to the media containing the test chemical and allowed to grow for 72 hours. The assay was monitored at 24, 48 and 72 hours and the active wells identified."}, "[3]": {"system": "Drosophila melanogaster", "assay": "DipteraTOX insecticidal bioassay", "parameters": "key: A value of A in DipG, Dip P or Dip H represents very active; a value of P represents active", "details": "250 μg per mL in agar", "procedure": "DipteraTOX. DipteraTOX is referred to herein as DipG, DipP and DipH. DipG represents no grazing of larva. DipP represents no pupae formation and Dip H represents no hatching of flies. A value of A in DipG, Dip P or Dip H represents very active and a value of P represents active. In DipteraTox the fly eggs are applied to the surface of an agar matrix containing 250 μg per mL of the test chemical and allowed to hatch, develop and pupate for a period up of two weeks. The assay was monitored at two discrete times to determine the extent of grazing of the agar matrix at Week 1 and the presence of adult flies at Week 2. […] Drosophila melanogaster was utilised for this assay."}, "[4]": {"system": "Giardia spp.", "assay": "TriTOX (Gi) anti-protozoan bioassay", "type": "cell-based", "details": "weight of chemical in last well with activity; real value may be lower", "source_text": "TriTOX (alternatively referred to herein as Gi) is a microtitre plate based chromogenic bioassay for the screening of anti-protozoan activity of pathogenic, anaerobic/microaerophilic protozoans for example Giardia spp. and Trichomonas spp. The bioassays are run under anaerobic conditions and features species specific chromogens. […] Aliquots of each concentration(s) are applied to the wells of 96-well microtitre plates and diluted with media. […] The lowest concentration at which the compound is active is noted as the minimum inhibitory concentration (MIC). Additionally, microscopic inspection is carried out to identify any patterns of morphological change that may be consistent with a type of toxicity and therefore mode of action. Giardia spp. was utilized for this assay."}, "[5]": {"system": "normal human fibroblasts (NFF)", "assay": "Additional in vitro activity: cytotoxic activity, NFF", "type": "cell-based", "details": "concentration with activity"}, "[6]": {"system": "leukemia K562", "assay": "Additional in vitro activity: antitumor activity, K562", "type": "cell-based, human", "details": "concentration with activity"}, "[7]": {"system": "melanoma MM96L", "assay": "Additional in vitro activity: antitumor activity, MM96L", "type": "cell-based, human", "details": "concentration with activity"}, "[8]": {"system": "melanoma MM418c5", "assay": "Additional in vitro activity: antitumor activity, MM418c5", "type": "cell-based, human", "details": "concentration with activity"}, "[9]": {"system": "prostate DU145", "assay": "Additional in vitro activity: antitumor activity, DU145", "type": "cell-based, human", "details": "concentration with activity"}, "[10]": {"system": "breast MCF-7", "assay": "Additional in vitro activity: antitumor activity, MCF-7", "type": "cell-based, human", "details": "concentration with activity"}, "[11]": {"system": "ovarian C180-13S", "assay": "Additional in vitro activity: antitumor activity, C180-13S", "type": "cell-based, human", "details": "concentration with activity"}, "[12]": {"system": "Neonatal foreskin fibroblasts (NFF)", "assay": "Cell growth inhibition (Table 22), NFF", "type": "cell-based", "details": "Homo sapiens, read-out: IC50 (drug dose which inhibits cell growth by 50%) NFF", "procedure": "(§1) The isolated compounds were tested against a number of human and non-human cancer cell lines. The human tumor cell lines were: MCF-7, MDA-MB-231 and T47D, breast cancer; DU145 and PC3, prostate cancer; CI80-13S, ovarian cancer; MM96L, D04, SkMel5, MM418c5 melanoma; HT29, colon cancer; K562 and HL60, leukemia. Mouse cell lines were the B16 mouse melanoma and LK2 UV-induced squamous cell carcinoma (SCC). Neonatal foreskin fibroblasts (NFF) were used as normal control cells. Cells were cultured at 37° C. in 5% carbon dioxide/air, in RPMI 1640 medium containing 10% fetal calf serum."}, "[13]": {"system": "MCF-7 breast cancer", "assay": "Cell growth inhibition (Table 22), MCF7", "type": "cell-based", "details": "Homo sapiens, read-out: IC50 (drug dose which inhibits cell growth by 50%) MCF7", "procedure": "as §1"}, "[14]": {"system": "DU145 prostate cancer", "assay": "Cell growth inhibition (Table 22), DU145", "type": "cell-based", "details": "Homo sapiens, DU-145; read-out: IC50 (drug dose which inhibits cell growth by 50%) DU145", "procedure": "as §1"}, "[15]": {"system": "K562 leukemia", "assay": "Cell growth inhibition (Table 22), K562", "type": "cell-based", "details": "Homo sapiens, read-out: IC50 (drug dose which inhibits cell growth by 50%) K562", "procedure": "as §1"}, "[16]": {"system": "CI80-13S ovarian cancer", "assay": "Cell growth inhibition (Table 22), C180-13S", "type": "cell-based", "details": "Homo sapiens, read-out: IC50 (drug dose which inhibits cell growth by 50%) C180-13S", "procedure": "as §1"}, "[17]": {"system": "MM96L melanoma", "assay": "Cell growth inhibition (Table 22), MM96L", "type": "cell-based", "details": "Homo sapiens, read-out: IC50 (drug dose which inhibits cell growth by 50%) MM96L", "procedure": "as §1"}, "[18]": {"system": "tumor cells", "assay": "Cell arrest, comparison of ethacrynic acid with EBI-23", "type": "cell-based"}}, "data": [{"compound": "CCCCCCCCCCCCCC(CC1CC(O)CC2(CC3OC(=O)C=CC3O2)O1)OC(C)=O", "note": "(stereo not shown) [EBI-25]", "values": [{"measurement": "Bs LD99", "setting": "[1]", "result": 25, "unit": "µg/mL"}, {"measurement": "Cy LD99", "setting": "[2]", "result": 1.6, "unit": "µg/mL"}, {"measurement": "DipH (no hatching of flies)", "setting": "[3]", "result": "P"}, {"measurement": "Gi LD99", "setting": "[4]", "result": 50, "unit": "µg/mL"}, {"measurement": "cytotoxic activity against normal human fibroblasts (NFF) at", "setting": "[5]", "result": 30, "unit": "µg/mL"}, {"measurement": "antitumor activity against leukemia K562 at", "setting": "[6]", "result": 30, "unit": "µg/mL"}, {"measurement": "antitumor activity against melanoma MM96L at", "setting": "[7]", "result": 10, "unit": "µg/mL"}, {"measurement": "antitumor activity against melanoma MM418c5 at", "setting": "[8]", "result": 10, "unit": "µg/mL"}, {"measurement": "antitumor activity against prostate DU145 at", "setting": "[9]", "result": 30, "unit": "µg/mL"}, {"measurement": "antitumor activity against breast MCF-7 at", "setting": "[10]", "result": 300, "unit": "µg/mL"}, {"measurement": "antitumor activity against ovarian C180-13S at", "setting": "[11]", "result": 3, "unit": "µg/mL"}, {"measurement": "IC50", "setting": "[12]", "result": 3, "unit": "µg/mL"}, {"measurement": "IC50", "setting": "[13]", "result": 0.34, "unit": "µg/mL"}, {"measurement": "IC50", "setting": "[14]", "result": 1, "unit": "µg/mL"}, {"measurement": "IC50", "setting": "[15]", "result": 6.1, "unit": "µg/mL"}, {"measurement": "IC50", "setting": "[16]", "result": 5, "unit": "µg/mL"}, {"measurement": "IC50", "setting": "[17]", "result": 1.6, "unit": "µg/mL"}]}, {"compound": "CCCCCCCCCCCCCC(CC1C=CCC2(CC3OC(=O)C=CC3O2)O1)OC(C)=O", "note": "(stereo not shown) [EBI-42]", "values": [{"measurement": "cytotoxic activity against normal human fibroblasts (NFF) at", "setting": "[5]", "result": "> 10", "unit": "µg/mL"}, {"measurement": "antitumor activity against melanoma MM96L at", "setting": "[7]", "result": 10, "unit": "µg/mL"}, {"measurement": "antitumor activity against ovarian C180-13S at", "setting": "[11]", "result": 10, "unit": "µg/mL"}, {"measurement": "IC50", "setting": "[12]", "result": "> 10", "unit": "µg/mL"}, {"measurement": "IC50", "setting": "[13]", "result": 6, "unit": "µg/mL"}, {"measurement": "IC50", "setting": "[14]", "result": "> 10", "unit": "µg/mL"}, {"measurement": "IC50", "setting": "[15]", "result": "> 10", "unit": "µg/mL"}, {"measurement": "IC50", "setting": "[16]", "result": 6, "unit": "µg/mL"}, {"measurement": "IC50", "setting": "[17]", "result": 6, "unit": "µg/mL"}]}, {"compound": "C=C(CC)C(=O)c1ccc(OCC(=O)O)c(Cl)c1Cl", "note": "[ethacrynic acid]", "values": [{"measurement": "fold higher concentration than EBI-23 to achieve cell arrest", "setting": "[18]", "result": 10, "unit": "fold"}, {"measurement": "selectivity against tumor cells", "setting": "[18]", "result": "no selectivity"}]}]}
